This passage reports melting point results from patent US7268146B2, “Ring fused pyrazole derivatives as CRF antagonists” (Palo Alto LLC, priority 2001, dated 2007).

Structures are written as SMILES. Structures can show the parent of a compound that is named as a salt.

Broadly, the melting point is the temperature, or range, at which the solid turns liquid. `Cc1cc(C)c(N2CCCc3c2nn(C)c3CN2CCc3ccccc3C2)c(C)c1` (as salt: hydrochloride) [Example 11, 2-[2-Methyl-7-(2,4,6-trimethyl-phenyl)-4,5,6,7-tetrahydro-2H-pyrazolo[3,4-b]pyridin-3-ylmethyl]-1,2,3,4-tetrahydroisoquinolinedihydrochloride]: the melting point was in the range of 236.4 to 241 °C.

As to `Cc1cc(C)c(N2CCCc3c2nn(C)c3Br)c(C)c1` [Example 3, 3-Bromo-2-methyl-7-(2,4,6-trimethyl-phenyl)-4,5,6,7-tetrahydro-2H-pyrazolo[3,4-b]pyridine], the melting point lay within 94.6 to 97.9 °C. `CCCC(O)(CCC)c1c2c(nn1C)N(c1c(C)cc(C)cc1Cl)CCC2` [Example 5a, 4-[7-(2-Chloro-4,6-dimethylphenyl)-2-methyl-4,5,6,7-tetrahydro-2H-pyrazolo[3,4-b]pyridin-3-yl]heptan-4-ol] had a melting point of 129 to 130 °C. For `CCCC(O)(CCC)c1c2c(nn1C)N(c1c(C)cc(C)cc1C)CCC2` [Example 5b, 4-[2-Methyl-7-(2,4,6-trimethylphenyl)-4,5,6,7-tetrahydro-2H-pyrazolo[3,4-b]pyridin-3-yl]heptan-4-ol] the value was 126 to 127.9 °C; for `CCCC(O)(CCC)c1c2c(nn1C)N(c1c(C)cc(C)cc1C)CCCC2` [Example 5d, 4-[2-Methyl-8-(2,4,6-trimethylphenyl)-2,4,5,6,7,8-hexahydro-1,2,8-triazaazulen-3-yl]heptan-4-ol], 87 to 91.1 °C. Next, `CCCC(O)(CCC)c1c2c(nn1C)N(c1ccc(Cl)cc1Cl)CCC2` [Example 5e, 4-[7-(2,4-Dichlorophenyl)-2-methyl-4,5,6,7-tetrahydro-2H-pyrazolo[3,4-b]pyridin-3-yl]heptan-4-ol]: 121.4 to 122.6 °C. `COCC(O)(COC)c1c2c(nn1C)N(c1c(C)cc(C)cc1C)CCC2` [Example 5f, 1,3-Dimethoxy-2-[2-methyl-7-(2,4,6-trimethylphenyl)-4,5,6,7-tetrahydro-2H-pyrazolo[3,4-b]pyridin-3-yl]propan-2-ol]: the melting point was in the range of 120.3 to 121.8 °C. For `COCCC(O)(COC)c1c2c(nn1C)N(c1c(C)cc(C)cc1C)CCC2` (stereo not drawn) [Example 5g, 1,4-Dimethoxy-2-[2-methyl-7-(2,4,6-trimethylphenyl)-4,5,6,7-tetrahydro-2H-pyrazolo[3,4-b]pyridin-3-yl]butan-2-ol], the melting point was in the range of 107.9 to 110.9 °C. For `CCCC(O)(c1nccs1)c1c2c(nn1C)N(c1c(C)cc(C)cc1C)CCC2` (stereo not drawn) [Example 5h, 1-[2-Methyl-7-(2,4,6-trimethylphenyl)-4,5,6,7-tetrahydro-2H-pyrazolo[3,4-b]pyridin-3-yl]-1-thiazol-2-ylbutan-1-ol] the value was 160.1 to 165.6 °C; for `Cc1cc(C)c(N2CCCc3c2nn(C)c3C(O)c2ccco2)c(C)c1` (stereo not drawn) [Example 5i, Furan-2-yl[2-methyl-7-(2,4,6-trimethyl-phenyl)-4,5,6,7-tetrahydro-2H-pyrazolo[3,4-b]pyridin-3-yl]methanol], 163.1 to 174.4 °C. Compound `CCC(O)c1c2c(nn1C)N(c1c(C)cc(C)cc1C)CCC2` (stereo not drawn) [Example 5j, 1-[2-Methyl-7-(2,4,6-trimethylphenyl)-4,5,6,7-tetrahydro-2H-pyrazolo[3,4-b]pyridin-3-yl]propan-1-ol] yielded a melting point of 179.4 to 180.9 °C. Next, `CCCC(O)(c1nccn1CC)c1c2c(nn1C)N(c1c(C)cc(C)cc1C)CCC2` (stereo not drawn) [Example 5k, 1-(1-Ethyl-1H-imidazol-2-yl)-1-[2-methyl-7-(2,4,6-trimethylphenyl)-4,5,6,7-tetrahydro-2H-pyrazolo[3,4-b]pyridin-3-yl]butan-1-ol]: 94.9 to 100.9 °C. `Cc1cc(C)c(N2CCCc3c2nn(C)c3C2(O)CCOCC2)c(C)c1` [Example 5l, 4-[2-Methyl-7-(2,4,6-trimethylphenyl)-4,5,6,7-tetrahydro-2H-pyrazolo[3,4-b]pyridin-3-yl]tetrahydropyran-4-ol] came in with a melting point of 193 to 195.1 °C. On to `Cc1cc(C)c(N2CCCc3cn(C)nc32)c(Cl)c1` [Example 5m, 7-(2-Chloro-4,6-dimethylphenyl)-2-methyl-4,5,6,7-tetrahydro-2H-pyrazolo[3,4-b]pyridine], for which the melting point lay in the range of 97 to 98 °C.

Regarding `CC/C=C(\CCC)c1c2c(nn1C)N(c1c(C)cc(C)cc1Cl)CCC2` [Example 6a, 7-(2-Chloro-4,6-dimethylphenyl)-2-methyl-3-(1-propylbut-1-enyl)-4,5,6,7-tetrahydro-2H-pyrazolo[3,4-b]pyridine], the melting point lay in the range of 86.7 to 88.2 °C.

The compound `CC/C=C(\CCC)c1c2c(nn1C)N(c1c(C)cc(C)cc1C)CCC2` [Example 6b, 2-Methyl-3-(1-propylbut-1-enyl)-7-(2,4,6-trimethylphenyl)-4,5,6,7-tetrahydro-2H-pyrazolo[3,4-b]pyridine] returned a melting point of 101.6 to 102.6 °C. `CC/C=C(\CCC)c1c2c(nn1C)N(c1c(C)cc(C)cc1C)CCCC2` [Example 6d, 2-Methyl-3-(1-propylbut-1-enyl)-8-(2,4,6-trimethylphenyl)-2,4,5,6,7,8-hexahydro-1,2,8-triazaazulene] returned a melting point of 101.9 to 103.9 °C. For `CCCC(c1cccs1)c1c2c(nn1C)N(c1c(C)cc(C)cc1C)CCC2` (stereo not drawn) [Example 7c, 2-Methyl-3-(1-thiophen-2-ylbutyl)-7-(2,4,6-trimethylphenyl)-4,5,6,7-tetrahydro-2H-pyrazolo[3,4-b]pyridine] the value was 87.6 to 90.3 °C; for `CCCC(CCC)c1c2c(nn1C)N(c1c(C)cc(C)cc1C)CCCC2` [Example 7d, 2-Methyl-3-(1-propylbutyl)-8-(2,4,6-trimethylphenyl)-2,4,5,6,7,8-hexahydro-1,2,8-triazaazulene], 96 to 98.1 °C; for `Cc1cc(C)c(N2CCCc3c2nn(C)c3C(=O)O)c(Cl)c1` [Example 8a, 7-(2-Chloro-4,6-dimethylphenyl)-2-methyl-4,5,6,7-tetrahydro-2H-pyrazolo[3,4-b]pyridine-3-carboxylic acid], 247.8 to 248.3 °C. As for `Cc1cc(C)c(N2CCCc3c2nn(C)c3C(=O)O)c(C)c1` [Example 8b, 7-(2,4,6-Trimethylphenyl)-2-methyl-4,5,6,7-tetrahydro-2H-pyrazolo[3,4-b]pyridine-3-carboxylic acid], the melting point lay within 228.6 to 233.9 °C. In the case of `Cc1cc(C)c(N2CCCc3c2nn(C)c3NC(=O)OC(C)(C)C)c(Cl)c1` [Example 8c, [7-(2-Chloro-4,6-dimethylphenyl)-2-methyl-4,5,6,7-tetrahydro-2H-pyrazolo[3,4-b]pyridin-3-yl]carbamic acid tert-butyl ester], the melting point lay within 171.4 to 175.7 °C. Next, `CCOC(=O)Nc1c2c(nn1C)N(c1c(C)cc(C)cc1Cl)CCC2` [Example 8d, [7-(2-Chloro-4,6-dimethylphenyl)-2-methyl-4,5,6,7-tetrahydro-2H-pyrazolo[3,4-b]pyridin-3-yl]carbamic acid ethyl ester]: 204 to 207.8 °C; `CCCN(CCC)c1c2c(nn1C)N(c1c(C)cc(C)cc1Cl)CCC2` [Example 9a, [7-(2-Chloro-4,6-dimethylphenyl)-2-methyl-4,5,6,7-tetrahydro-2H-pyrazolo[3,4-b]pyridin-3-yl]dipropylamine]: 90 to 91 °C.
